Measured values as given in US8722897B2, “Metal complexes of thiourea and derivatives as metal delivering anti-cancer and anti-inflammatory agents” (priority 2010, dated 2014).

What was measured:
Recombinant rat TrxR1 = target: T1, Recombinant rat TrxR1 (Rattus norvegicus, UniProt O89049); assay: biochemical; conditions: preformed EI*
T1 construct: purchased ICMO Corp, Sweden (so in the source)
T1 sequence (O89049 1-499): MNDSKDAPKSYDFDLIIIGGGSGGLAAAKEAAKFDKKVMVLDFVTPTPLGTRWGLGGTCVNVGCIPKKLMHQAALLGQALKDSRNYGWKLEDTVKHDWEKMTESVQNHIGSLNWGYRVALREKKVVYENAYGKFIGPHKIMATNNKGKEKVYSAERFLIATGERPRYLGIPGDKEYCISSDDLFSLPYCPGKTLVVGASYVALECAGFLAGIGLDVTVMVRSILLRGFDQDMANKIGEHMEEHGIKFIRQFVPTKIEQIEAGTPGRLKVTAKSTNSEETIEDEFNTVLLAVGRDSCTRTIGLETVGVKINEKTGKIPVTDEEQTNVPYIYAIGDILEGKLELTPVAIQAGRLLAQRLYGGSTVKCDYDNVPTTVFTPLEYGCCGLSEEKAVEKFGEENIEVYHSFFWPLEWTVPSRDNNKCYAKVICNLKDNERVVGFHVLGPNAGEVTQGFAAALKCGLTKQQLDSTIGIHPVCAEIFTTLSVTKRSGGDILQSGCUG
Description: 1 nM Recombinant rat TrxR1 (ICMO Corp, Sweden) was reduced with 0.2 mM NADPH and then incubated with 0.3-10 nM of 1 for 30 min in a buffer of 100 mM phosphate buffer, pH 7.4 and 1 mM EDTA. The residual activities were measured using 0.75, 1.5 or 3 mM DTNB (FIG. 7A). The data were fit into Eq. 1 using GraphPad Prism 3.0 software. vs/vo=(Et−Ki−It+((It+Ki′−Et)^2+(4KiEt))^1/2)/(2Et) (1) Eq. 1 describes the rate law of tight-binding inhibition in which case the inhibitor concentration is substantially depleted owing to formation of enzyme-inhibitor complex. In this equation, vo is the observed velocity in the absence of inhibitor, vs is the steady-state velocity in the presence of inhibitor, Et is the total enzyme concentration, and I is the inhibitor concentration. […] Ki=Ki*(1+S/Km) (2) Determination of Ki by Progress Curve Analysis ^35, 36 (FIG. 8)

[1] = Cytotoxicity assay (MTT), NCI-H460; conditions: human, NCI-H460 cells
Description: (§1) Cells were seeded in a 96-well flat-bottomed microplate at 20,000 cells/well in 150 μL of growth medium solution. The compounds were dissolved in dimethyl sulfoxide. Serial dilution of each complex was added to each well with final concentration of DMSO≦1%. The microplate was incubated at 37° C., 5% CO2, 95% air in a humidified incubator for 72 h. After incubation, 10 μL MTT reagent (5 mg/mL) was added to each well. The microplate was re-incubated at 37° C. in 5% CO2 for 4 h. Solubilization solution (10% SDS in 0.01 M HCl) (100 μL) was added to each well. The microplate was left in an incubator for 24 h. Absorbances at 550 nm were measured by a microplate reader.

[2] = Cytotoxicity assay (MTT), SUNE1; conditions: human, SUNE1 cells
Description: as §1

[3] = Cytotoxicity assay (MTT), HeLa; conditions: human, HeLa cells
Description: Cells were seeded in a 96-well flat-bottomed microplate at 20,000 cells/well in 150 μL of growth medium solution. The compounds were dissolved in dimethyl sulfoxide. Serial dilution of each complex was added to each well with final concentration of DMSO≦1%. […] After incubation, 10 μL MTT reagent (5 mg/mL) was added to each well. The microplate was re-incubated at 37° C. in 5% CO2 for 4 h. Solubilization solution (10% SDS in 0.01 M HCl) (100 μL) was added to each well. The microplate was left in an incubator for 24 h. Absorbances at 550 nm were measured by a microplate reader.

[4] = target: T2, Glutathione reductase (GR) (Homo sapiens, UniProt P00390); assay: Cellular glutathione reductase activity of treated HeLa cells; format: cell-based; conditions: one-hour treatment
T2 construct: endogenous in cells; host or cells: HeLa
T2 sequence (P00390 44-522): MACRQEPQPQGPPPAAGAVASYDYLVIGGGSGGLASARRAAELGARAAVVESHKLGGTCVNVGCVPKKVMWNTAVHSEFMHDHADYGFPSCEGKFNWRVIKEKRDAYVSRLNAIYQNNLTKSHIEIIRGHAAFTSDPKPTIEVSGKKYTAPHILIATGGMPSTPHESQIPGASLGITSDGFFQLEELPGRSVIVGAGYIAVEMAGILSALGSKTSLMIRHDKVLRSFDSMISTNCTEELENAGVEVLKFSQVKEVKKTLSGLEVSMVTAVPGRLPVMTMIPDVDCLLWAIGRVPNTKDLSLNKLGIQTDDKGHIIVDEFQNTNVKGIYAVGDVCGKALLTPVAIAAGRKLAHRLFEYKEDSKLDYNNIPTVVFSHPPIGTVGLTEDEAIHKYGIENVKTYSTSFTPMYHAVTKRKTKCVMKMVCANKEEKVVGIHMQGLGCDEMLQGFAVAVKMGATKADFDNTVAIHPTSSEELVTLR
Description: Cells were seeded at 2×10^5/well in 6-well plates and incubated for 24 hours. The metal thiourea compounds (10^−9 to 10^−4 M) were serially diluted and added to the cells (final DMSO concentrations≦1%). After an one-hour incubation, cells were washed thrice with phosphate buffered saline and 100 μL ice-cold lysis buffer (50 mM phosphate buffer, pH 7.4, 1 mM EDTA, 0.1% Triton-X 100) were added to the cell layer. Cell lysis was carried on ice for 5 minutes and the cell lysates were collected and stored at −80° C. or assayed immediately.
Cell lysates (10 μg proteins) were added to a mixture containing 100 mM phosphate, pH 7.4, 1 mM EDTA, 1 mM GSSG and 0.2 mM NADPH. Reaction was initiated by adding DTNB (3 mM final) and the increases in O.D.412 nm were measured for 10 min. GR activities were determined by subtracting the increases in O.D.412 nm in the absence of GSSG.

`COc1ccc(N2CCN(c3ccc(OC)cc3)C2=[S+][Au-][S+]=C2N(c3ccc(OC)cc3)CCN2c2ccc(OC)cc2)cc1` [complex 1, [Au(TU)2]Cl] gave a Ki (Recombinant rat TrxR1; apparent inhibitory constant (Ki), 1 nM TrxR1, 30 min preincubation, steady state rate law) of 0.67 nM, a Ki (Recombinant rat TrxR1; inhibitory constant Ki*, corrected for substrate competition, Km 0.2 mM) of 0.036 nM and an IC50 at 72 h [1] of 3.72 ± 0.3 µM. For the same molecule, the IC50 at 72 h [2] was 10.8 ± 0.2 µM, the IC50 at 72 h [3] was 14.6 ± 0.7 µM and the “effect on cellular GR activity” value [4] was “not affected”.
